Assay results published in US12636287B2, “Organic compounds” (INTRA-CELLULAR THERAPIES, INC., priority 2018, dated 2026).

Experiments:
UWLV301 GBM cell line = experiment: Sensitivity of GBM cell line to Compounds 1 and 2 (ID50); type: cell-based; conditions: Homo sapiens
IN1951 GBM cell line = experiment: as above; type: cell-based; conditions: Homo sapiens
UWLV304 GBM cell line = experiment: as above; type: cell-based; conditions: Homo sapiens
IN1528 GBM cell line = experiment: as above; type: cell-based; conditions: Homo sapiens
U251MG GBM cell line = experiment: as above; type: cell-based; conditions: Homo sapiens, U-251
IN859 GBM cell line = experiment: as above; type: cell-based; conditions: Homo sapiens
IN2045 GBM cell line = experiment: as above; type: cell-based; conditions: Homo sapiens
GBM cells = experiment: Proliferation and survival of GBM cells over 8 days; type: cell-based, human; conditions: for change in GBM cell population by day 8 / rate of proliferation in comparison with untreated samples: 10 μM and 20 μM; for change in GBM cell population by day 8: UWLV301, UWLV304, IN1951, U251MG and IN2045; for rate of proliferation in comparison with untreated samples: recorded daily for 8 days, all cell lines; for slowing or eliminating the proliferation of the GBM cell lines: summary statement
Protocol: Further studies were carried out to test the effect of Compounds 1 and 2 on proliferation and survival of the GBM cells. […] Results on the change in cell population were observed and recorded daily for 8 days.

PDE1 (bovine brain) = target: T1, PDE1 (bovine brain); type: biochemical
T1 construct: Ki; other: PDE1 (bovine brain)

bovine retina PDE6 = target: T2, bovine retina PDE6 (Bos taurus, UniProt P11541+P23439); experiment: Inhibitory constant against PDEs; type: biochemical
T2 construct: bovine retina PDE6; from tissue; host or cells: bovine retina
T2 sequence (P11541 2-856 limits assumed): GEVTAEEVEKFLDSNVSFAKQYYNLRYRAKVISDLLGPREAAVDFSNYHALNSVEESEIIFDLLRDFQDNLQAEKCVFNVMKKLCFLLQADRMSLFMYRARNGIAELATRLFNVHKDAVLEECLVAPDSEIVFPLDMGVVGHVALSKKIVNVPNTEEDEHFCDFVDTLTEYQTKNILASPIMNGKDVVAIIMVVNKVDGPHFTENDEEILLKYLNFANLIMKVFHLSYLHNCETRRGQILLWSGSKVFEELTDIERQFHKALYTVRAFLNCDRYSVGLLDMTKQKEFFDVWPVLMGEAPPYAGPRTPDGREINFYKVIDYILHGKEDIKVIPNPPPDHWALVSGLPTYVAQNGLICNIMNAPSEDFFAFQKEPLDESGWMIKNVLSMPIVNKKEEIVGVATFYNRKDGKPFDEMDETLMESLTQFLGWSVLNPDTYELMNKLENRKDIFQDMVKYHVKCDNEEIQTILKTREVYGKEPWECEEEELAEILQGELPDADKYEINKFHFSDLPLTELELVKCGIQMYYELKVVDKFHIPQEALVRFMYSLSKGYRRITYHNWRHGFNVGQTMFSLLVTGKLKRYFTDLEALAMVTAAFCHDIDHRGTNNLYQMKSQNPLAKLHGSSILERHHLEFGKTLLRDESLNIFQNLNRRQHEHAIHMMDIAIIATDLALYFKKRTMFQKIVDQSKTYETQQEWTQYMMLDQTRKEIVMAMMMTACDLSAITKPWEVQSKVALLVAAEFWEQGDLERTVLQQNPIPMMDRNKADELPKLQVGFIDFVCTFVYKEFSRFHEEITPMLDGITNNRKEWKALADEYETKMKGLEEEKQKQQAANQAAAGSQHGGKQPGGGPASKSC
T2 sequence (P23439 2-850 limits assumed): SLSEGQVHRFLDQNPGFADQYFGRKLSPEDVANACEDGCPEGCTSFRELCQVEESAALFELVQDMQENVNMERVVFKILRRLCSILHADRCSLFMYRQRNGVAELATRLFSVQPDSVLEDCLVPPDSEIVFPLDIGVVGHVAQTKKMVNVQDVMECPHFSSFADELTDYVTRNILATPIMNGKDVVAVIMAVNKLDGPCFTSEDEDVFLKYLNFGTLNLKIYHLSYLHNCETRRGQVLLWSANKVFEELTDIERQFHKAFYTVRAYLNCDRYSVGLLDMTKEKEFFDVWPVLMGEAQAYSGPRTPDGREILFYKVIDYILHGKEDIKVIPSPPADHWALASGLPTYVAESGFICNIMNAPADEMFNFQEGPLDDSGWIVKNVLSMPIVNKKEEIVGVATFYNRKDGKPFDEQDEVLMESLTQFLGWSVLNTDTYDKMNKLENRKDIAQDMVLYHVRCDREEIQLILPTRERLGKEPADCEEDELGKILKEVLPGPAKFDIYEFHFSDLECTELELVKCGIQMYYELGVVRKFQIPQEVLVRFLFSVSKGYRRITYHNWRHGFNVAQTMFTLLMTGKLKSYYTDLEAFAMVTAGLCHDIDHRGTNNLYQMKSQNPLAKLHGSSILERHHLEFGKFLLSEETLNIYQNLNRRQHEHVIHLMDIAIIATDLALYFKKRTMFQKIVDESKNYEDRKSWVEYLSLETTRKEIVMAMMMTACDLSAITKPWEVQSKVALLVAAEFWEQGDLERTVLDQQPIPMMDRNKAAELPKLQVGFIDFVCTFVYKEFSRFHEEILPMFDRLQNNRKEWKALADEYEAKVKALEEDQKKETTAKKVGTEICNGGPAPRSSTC

Row | Compound | IC50 (UWLV301 GBM cell line) [µM] | IC50 (IN1951 GBM cell line) [µM] | IC50 (UWLV304 GBM cell line) [µM] | IC50 (IN1528 GBM cell line) [µM] | IC50 (U251MG GBM cell line) [µM] | IC50 (IN859 GBM cell line) [µM] | IC50 (IN2045 GBM cell line) [µM] | change in GBM cell population by day 8 (GBM cells) | rate of proliferation in comparison with untreated samples (GBM cells) | slowing or eliminating the proliferation of the GBM cell lines (GBM cells) | Ki (PDE1 (bovine brain)) [nM] | Ki (bovine retina PDE6) [µM]
1 | CN1C(=O)c2c(nn(Cc3ccc(-c4cccc(F)n4)cc3)c2Nc2ccccc2)N2C1=N[C@@H]1CCC[C@@H]12 [Compound 1] | 5.4 | 2.04 | 6.4 | 26.5 | 17.8 | 34.9 | 18.4 | overall decrease | proliferated at a slower rate | highly effective | 0.058 | 0.32
2 | CC(=O)c1ccc(Cn2nc3c(c2Nc2ccc(F)cc2)C(=O)N(C)C2=NC(C)(C)CN23)cc1 [Compound 2] | 4.73 | 1.03 | 2.87 | 9.45 | 32 | 9.77 | 12 | overall decrease | proliferated at a slower rate | highly effective |  | 
